# Literature values, collected in patent US20030101005A1, “Crystals and structures of perosamine synthase homologs” (priority 2001, published 2003).
# Biological target: T1, His-tag RfbE fusion protein (GDP-4-keto-6-deoxy-D-mannose-4-aminotransferase) (Vibrio cholerae, UniProt Q06953)
# T1 construct: His-tag
# Details: substrate or cosubstrate of His-tag RfbE fusion protein
# T1 sequence (Q06953 whole entry, the tested form may be a part): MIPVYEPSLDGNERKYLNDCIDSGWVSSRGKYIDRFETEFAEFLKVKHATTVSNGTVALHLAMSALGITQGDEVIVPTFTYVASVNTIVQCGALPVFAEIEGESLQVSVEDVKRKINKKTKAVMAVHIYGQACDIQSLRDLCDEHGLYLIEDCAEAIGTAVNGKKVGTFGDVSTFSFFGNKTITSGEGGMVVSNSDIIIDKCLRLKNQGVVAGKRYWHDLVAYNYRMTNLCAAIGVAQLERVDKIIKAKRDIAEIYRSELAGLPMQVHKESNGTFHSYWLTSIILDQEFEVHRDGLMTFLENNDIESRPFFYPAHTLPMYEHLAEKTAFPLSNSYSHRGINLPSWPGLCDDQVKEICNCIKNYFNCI
Structure (SMILES),K(m),V(max)
N[C@@H](CCC(=O)O)C(=O)O [L-glutamate],0.1 mM,42 nkat/mg protein
CC1OC(OP(=O)(O)OP(=O)(O)OCC2OC(n3cnc4c(=O)[nH]c(N)nc43)C(O)C2O)C(O)C(O)C1=O [GDP-4-keto-6-deoxy-D-mannose],0.06 mM,38 nkat/mg protein
